Data from ChEMBL document CHEMBL1201861, “Genomics of Drug Sensitity in Cancer screening data, Wellcome Trust Sanger Institute”.

Legend:
Assay in all cases: cells
COLO-800 = type: functional, cell-based, Homo sapiens; conditions: Homo sapiens, COLO-800;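 also: growth inhibition of COLO-800 cells, read out with a cell viability assay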
COLO-824 = type: functional, cell-based, Homo sapiens; conditions: Homo sapiens, COLO-824
CW-2 = type: functional, cell-based, Homo sapiens; conditions: Homo sapiens, CW-2;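 also: growth inhibition of CW-2 cells, read out by a cell viability assay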
Calu-6 = type: functional, cell-based, Homo sapiens; conditions: Homo sapiens, Calu-6;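 also: growth of human Calu-6 cells, read out by a cell viability assay, IC50 marking inhibition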
D-247MG = type: functional, cell-based; conditions: Homo sapiens
DOHH-2 = type: functional, cell-based, Homo sapiens; conditions: Homo sapiens, DOHH-2;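 also: growth inhibition of human DOHH-2 cells, read out with a cell viability assay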
DU-4475 = type: functional, cell-based, Homo sapiens; conditions: Homo sapiens, DU-4475
EKVX = type: functional, cell-based, Homo sapiens; conditions: Homo sapiens, EKVX;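 also: growth inhibition of human EKVX cells, read out with a cell viability assay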
EM-2 = type: functional, cell-based, Homo sapiens; conditions: Homo sapiens, EM-2;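 also: growth inhibition of EM-2 cells, read out with a cell viability assay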
ES4 = type: functional, cell-based, Homo sapiens; conditions: Homo sapiens, ES4;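 also: growth inhibition of human ES4 cells, read out by a cell viability assay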
ES5 = type: functional, cell-based, Homo sapiens; conditions: Homo sapiens, ES5;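 also: growth inhibition of human ES5 cells, read out by a cell viability assay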
ES6 = type: functional, cell-based; conditions: Homo sapiens;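 also: growth inhibition of human ES6 cells, read out with a cell viability assay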
GCIY = type: functional, cell-based, Homo sapiens; conditions: Homo sapiens, GCIY;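 also: growth inhibition of the human GCIY cell line, read out by a cell viability assay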
HCC1187 = type: functional, cell-based, Homo sapiens; conditions: Homo sapiens, HCC1187;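 also: growth inhibition of HCC1187 cells, read out with a cell viability assay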
HCC2157 = type: functional, cell-based, Homo sapiens; conditions: Homo sapiens, HCC2157;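 also: growth inhibition of the cancer cell line, read out as cell viability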
HDLM-2 = type: functional, cell-based, Homo sapiens; conditions: Homo sapiens, HDLM-2;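 also: cell viability assay measuring suppression of HDLM-2 proliferation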
HT-144 = type: functional, cell-based, Homo sapiens; conditions: Homo sapiens, HT-144
JVM-2 = type: functional, cell-based, Homo sapiens; conditions: Homo sapiens, JVM-2;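 also: growth inhibition of JVM-2 cells determined by a cell viability assay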
KARPAS-299 = type: functional, cell-based, Homo sapiens; conditions: Homo sapiens, KARPAS-299
LB831-BLC = type: functional, cell-based, Homo sapiens; conditions: Homo sapiens, LB831-BLC;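 also: growth inhibition of LB831-BLC cells, read out with a cell viability assay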
LS-123 = type: functional, cell-based, Homo sapiens; conditions: Homo sapiens, LS-123
LS-513 = type: functional, cell-based, Homo sapiens; conditions: Homo sapiens, LS-513
Lu-65 = type: functional, cell-based, Homo sapiens; conditions: Homo sapiens, Lu-65;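 also: growth inhibition of Lu-65 cancer cells, read out by a cell viability assay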
MC116 = type: functional, cell-based, Homo sapiens; conditions: Homo sapiens, MC116;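 also: growth inhibition of MC116 cells, read out with a cell viability assay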
MOLT-4 = type: functional, cell-based, Homo sapiens; conditions: Homo sapiens, MOLT-4;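 also: growth inhibition of MOLT-4 cells, determined with a cell viability readout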
MZ1-PC = type: functional, cell-based, Homo sapiens; conditions: Homo sapiens, MZ1-PC;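 also: cell viability assay measuring growth inhibition of human MZ1-PC cells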
NB10 = type: functional, cell-based, Homo sapiens; conditions: Homo sapiens, NB10;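 also: growth inhibition of NB10 cells, read out by a cell viability assay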
NCI-H1770 = type: functional, cell-based, Homo sapiens; conditions: Homo sapiens, NCI-H1770;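 also: growth inhibition of NCI-H1770 cells determined with a viability readout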
NCI-H2126 = type: functional, cell-based, Homo sapiens; conditions: Homo sapiens, NCI-H2126;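 also: growth inhibition of the cancer cell line, determined with a cell viability readout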
NCI-H23 = type: functional, cell-based, Homo sapiens; conditions: Homo sapiens, NCI-H23;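 also: cell viability assay measuring growth inhibition of NCI-H23 cells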
NCI-H747 = type: functional, cell-based, Homo sapiens; conditions: Homo sapiens, NCI-H747;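 also: growth inhibition of human NCI-H747 cells, read out by a cell viability assay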
NCI-H82 = type: functional, cell-based, Homo sapiens; conditions: Homo sapiens, NCI-H82;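 also: growth inhibition of NCI-H82 cells, measured with a cell viability readout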
SNU-5 = type: functional, cell-based, Homo sapiens; conditions: Homo sapiens, SNU-5;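 also: cell viability readout used to measure growth inhibition in human NCI-SNU-5 cells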
NTERA-2-cl-D1 = type: functional, cell-based, Homo sapiens; conditions: Homo sapiens, NTERA-2-cl-D1;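 also: inhibition of cell growth, measured with a cell viability assay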
P30-OHK = type: functional, cell-based, Homo sapiens; conditions: Homo sapiens, P30-OHK;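 also: growth inhibition of the P30-OHK cell line, read out with a cell viability assay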
QIMR-WIL = type: functional, cell-based, Homo sapiens; conditions: Homo sapiens, QIMR-WIL;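 also: growth inhibition of QIMR-WIL cells, read out with a cell viability assay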
RXF 393 = type: functional, cell-based, Homo sapiens; conditions: Homo sapiens, RXF 393;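 also: growth inhibition of human RXF 393 cells, read out with a cell viability assay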
SCH = type: functional, cell-based, Homo sapiens; conditions: Homo sapiens, SCH;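 also: growth inhibition of human SCH cells, read out in a cell viability assay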
SF-539 = type: functional, cell-based, Homo sapiens; conditions: Homo sapiens, SF-539;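 also: Read-out is a cell viability assay, with IC50 reflecting inhibition of cell growth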
SK-LMS-1 = type: functional, cell-based, Homo sapiens; conditions: Homo sapiens, SK-LMS-1;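 also: growth inhibition of human SK-LMS-1 cells, read out with a cell viability assay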
SK-PN-DW = type: functional, cell-based, Homo sapiens; conditions: Homo sapiens, SK-PN-DW;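 also: growth inhibition measured with a viability assay on these cells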
SNB-75 = type: functional, cell-based, Homo sapiens; conditions: Homo sapiens, SNB-75;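 also: cell viability assay measuring growth inhibition of human SNB-75 cells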
A3-KAW = type: functional, cell-based, Homo sapiens; conditions: Homo sapiens, A3-KAW;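 also: growth inhibition of human A3-KAW cells, read out with a cell viability assay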
ACN = type: functional, cell-based, Homo sapiens; conditions: Homo sapiens, ACN;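 also: growth inhibition of the human ACN cell line, read out via cell viability testing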
BB30-HNC = type: functional, cell-based, Homo sapiens; conditions: Homo sapiens, BB30-HNC;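 also: growth inhibition of the cultured cell line, read out by a cell viability assay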
TE-10 = type: functional, cell-based, Homo sapiens; conditions: Homo sapiens, TE-10;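 also: growth inhibition of TE-10 cells, measured by a cell viability assay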
TE-11 = type: functional, cell-based; conditions: Homo sapiens;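 also: growth inhibition of human TE-11 cells, read out by a cell viability assay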
TE-12 = type: functional, cell-based, Homo sapiens; conditions: Homo sapiens, TE-12;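 also: growth inhibition of TE-12 cells, read out by a cell viability assay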
TE-5 = type: functional, cell-based, Homo sapiens; conditions: Homo sapiens, TE-5;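 also: inhibition of cell growth, read out by a cell viability assay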
TE-8 = type: functional, cell-based, Homo sapiens; conditions: Homo sapiens, TE-8;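 also: growth inhibition of TE-8 cells, measured with a cell viability readout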

Compound: O=S(=O)(O)c1ccc2cc(/N=N/c3cc(S(=O)(=O)O)c4cccnc4c3O)ccc2c1
- IC50 (COLO-800): > 16000 nM
- IC50 (COLO-824): > 16000 nM
- IC50 (CW-2): > 16000 nM
- IC50 (Calu-6): > 16000 nM
- IC50 (D-247MG): > 16000 nM
- IC50 (DOHH-2): > 16000 nM
- IC50 (DU-4475): > 16000 nM
- IC50 (EKVX): > 16000 nM
- IC50 (EM-2): > 16000 nM
- IC50 (ES4): > 16000 nM
- IC50 (ES5): > 16000 nM
- IC50 (ES6): > 16000 nM
- IC50 (GCIY): > 16000 nM
- IC50 (HCC1187): > 16000 nM
- IC50 (HCC2157): > 16000 nM
- IC50 (HDLM-2): > 16000 nM
- IC50 (HT-144): > 16000 nM
- IC50 (JVM-2): > 16000 nM
- IC50 (KARPAS-299): > 16000 nM
- IC50 (LB831-BLC): > 16000 nM
- IC50 (LS-123): > 16000 nM
- IC50 (LS-513): > 16000 nM
- IC50 (Lu-65): > 16000 nM
- IC50 (MC116): > 16000 nM
- IC50 (MOLT-4): > 16000 nM
- IC50 (MZ1-PC): > 16000 nM
- IC50 (NB10): > 16000 nM
- IC50 (NCI-H1770): > 16000 nM
- IC50 (NCI-H2126): > 16000 nM
- IC50 (NCI-H23): > 16000 nM
- IC50 (NCI-H747): > 16000 nM
- IC50 (NCI-H82): > 16000 nM
- IC50 (SNU-5): > 16000 nM
- IC50 (NTERA-2-cl-D1): > 16000 nM
- IC50 (P30-OHK): > 16000 nM
- IC50 (QIMR-WIL): > 16000 nM
- IC50 (RXF 393): > 16000 nM
- IC50 (SCH): > 16000 nM
- IC50 (SF-539): > 16000 nM
- IC50 (SK-LMS-1): 9450 nM
- IC50 (SK-PN-DW): > 16000 nM
- IC50 (SNB-75): > 16000 nM
- IC50 (A3-KAW): > 16000 nM
- IC50 (ACN): > 16000 nM
- IC50 (BB30-HNC): > 16000 nM
- IC50 (TE-10): > 16000 nM
- IC50 (TE-11): > 16000 nM
- IC50 (TE-12): > 16000 nM
- IC50 (TE-5): > 16000 nM
- IC50 (TE-8): > 16000 nM

Compound: Nc1ccccc1NC(=O)c1ccc(CNC(=O)OCc2cccnc2)cc1 [ENTINOSTAT]
- IC50 (COLO-800): > 5000 nM
- IC50 (COLO-824): > 5000 nM
- IC50 (CW-2): 658 nM
- IC50 (Calu-6): > 5000 nM
- IC50 (D-247MG): > 5000 nM
- IC50 (DOHH-2): > 5000 nM
- IC50 (DU-4475): 587 nM
- IC50 (EKVX): > 5000 nM
- IC50 (EM-2): 241 nM
- IC50 (ES4): 859 nM
- IC50 (ES5): > 5000 nM
- IC50 (ES6): 964 nM
- IC50 (GCIY): > 5000 nM
- IC50 (HCC1187): 4900 nM
- IC50 (HCC2157): 1430 nM
- IC50 (HDLM-2): 1680 nM
- IC50 (HT-144): 303 nM
- IC50 (JVM-2): > 5000 nM
- IC50 (KARPAS-299): 585 nM
- IC50 (LB831-BLC): 1840 nM
- IC50 (LS-123): 2350 nM
- IC50 (LS-513): 445 nM
- IC50 (Lu-65): 4150 nM
- IC50 (MC116): 1440 nM
- IC50 (MOLT-4): 1030 nM
- IC50 (MZ1-PC): 3620 nM
- IC50 (NB10): 2410 nM
- IC50 (NCI-H1770): > 5000 nM
- IC50 (NCI-H2126): > 5000 nM
- IC50 (NCI-H23): > 5000 nM
- IC50 (NCI-H747): 3050 nM
- IC50 (NCI-H82): 1630 nM
- IC50 (SNU-5): > 5000 nM
- IC50 (NTERA-2-cl-D1): 201 nM
- IC50 (P30-OHK): > 5000 nM
- IC50 (QIMR-WIL): 683 nM
- IC50 (RXF 393): > 5000 nM
- IC50 (SCH): 403 nM
- IC50 (SF-539): 196 nM
- IC50 (SK-LMS-1): > 5000 nM
- IC50 (SK-PN-DW): 978 nM
- IC50 (SNB-75): > 5000 nM
- IC50 (A3-KAW): 176 nM
- IC50 (ACN): 510 nM
- IC50 (BB30-HNC): 1390 nM
- IC50 (TE-10): > 5000 nM
- IC50 (TE-12): 3520 nM
- IC50 (TE-5): 3210 nM
- IC50 (TE-8): 369 nM

Compound: Cc1ccc(C(=O)Nc2ccc(CN3CCN(C)CC3)c(C(F)(F)F)c2)cc1C#Cc1cnc2cccnn12 [PONATINIB]
- IC50 (COLO-800): > 512 nM
- IC50 (COLO-824): > 512 nM
- IC50 (CW-2): > 512 nM
- IC50 (Calu-6): > 512 nM
- IC50 (D-247MG): > 512 nM
- IC50 (DOHH-2): 48 nM
- IC50 (DU-4475): 495 nM
- IC50 (EKVX): > 512 nM
- IC50 (ES4): > 512 nM
- IC50 (ES5): > 512 nM
- IC50 (ES6): > 512 nM
- IC50 (GCIY): > 512 nM
- IC50 (HCC1187): > 512 nM
- IC50 (HCC2157): > 512 nM
- IC50 (HDLM-2): > 512 nM
- IC50 (HT-144): 313 nM
- IC50 (JVM-2): > 512 nM
- IC50 (KARPAS-299): > 512 nM
- IC50 (LB831-BLC): > 512 nM
- IC50 (LS-123): > 512 nM
- IC50 (LS-513): > 512 nM
- IC50 (Lu-65): > 512 nM
- IC50 (MC116): > 512 nM
- IC50 (MOLT-4): > 512 nM
- IC50 (MZ1-PC): 113 nM
- IC50 (NB10): > 512 nM
- IC50 (NCI-H1770): > 512 nM
- IC50 (NCI-H2126): > 512 nM
- IC50 (NCI-H23): > 512 nM
- IC50 (NCI-H747): 421 nM
- IC50 (NCI-H82): > 512 nM
- IC50 (SNU-5): > 512 nM
- IC50 (NTERA-2-cl-D1): > 512 nM
- IC50 (P30-OHK): 157 nM
- IC50 (QIMR-WIL): 334 nM
- IC50 (RXF 393): > 512 nM
- IC50 (SCH): > 512 nM
- IC50 (SF-539): > 512 nM
- IC50 (SK-LMS-1): > 512 nM
- IC50 (SK-PN-DW): > 512 nM
- IC50 (SNB-75): > 512 nM
- IC50 (A3-KAW): > 512 nM
- IC50 (ACN): 349 nM
- IC50 (BB30-HNC): > 512 nM
- IC50 (TE-10): > 512 nM
- IC50 (TE-11): > 512 nM
- IC50 (TE-12): > 512 nM
- IC50 (TE-5): > 512 nM
- IC50 (TE-8): > 512 nM
